In ChEMBL document CHEMBL1132191, “Prediction of the binding free energies of new TIBO-like HIV-1 reverse transcriptase inhibitors using a combination of PROFEC, PB/SA, CMC/MD, and free energy calculations” (J Med Chem, 1999) one finds EC50 data, which are given here for eight compounds.

The assay deals with Human immunodeficiency virus type 1 reverse transcriptase (Human immunodeficiency virus 1, UniProt Q72547). The assay can be described thus: Effective concentration against HIV-1 reverse transcriptase. It is filed as functional.
The EC50 is the concentration needed to bring the measured effect to its halfway point. Read a high EC50 as lower potency in that assay. In the case of `C=CCN1[C@H](C)c2cccc3[nH]c(=S)n(c23)C[C@@H]1C`, the EC50 was 790 nM.
Under `C=CCN1[C@@H](C)Cn2c(=S)[nH]c3cccc(c32)[C@@H]1C` stands 39 nM.
The figure for `C=CCN1Cc2c(Cl)ccc3[nH]c(=S)n(c23)C[C@@H]1C` is 4.6 nM; for `CC(C)=CCN1Cc2cc(Cl)cc3[nH]c(=S)n(c23)C[C@@H]1C` it is 33 nM; for `C=CCN1Cc2c(C)ccc3[nH]c(=S)n(c23)C[C@@H]1C` it is 14 nM.
Under `C=CCN1Cc2cccc3[nH]c(=O)n(c23)C[C@@H]1C` stands 4200 nM; under `CC(C)=CCN1Cc2cccc3[nH]c(=S)n(c23)C[C@@H]1C`, 44 nM.
In turn, `CC(C)=CCN1Cc2c(Cl)ccc3[nH]c(=S)n(c23)C[C@@H]1C` [TIVIRAPINE] registered an EC50 of 5.1 nM.
